Like-named read-outs stand apart in the source and are kept apart here.

Assay [1] relates to RL Human Follicular Lymphoma Cell Line. The experiment in a line: Alamar blue cytotoxicity assay in RL cells. The assay is classed as cell-based. Particulars: Homo sapiens, 72 h incubation, read-out: Bcl RL Alamar Blue IC50. The protocol: When RL-cells are exposed to isoxazolidine compounds of the present invention, the inhibitors show a dose-dependent cell-killing in the Alamar blue cytoxicity assay with IC50 values of from about 100 μM to about 1 μM (See Examples). When Panc1 cells are exposed to the isoxazolidine compounds of the present invention in combination with camptothecin, the inhibitors show a synergistic dose-dependent cell killing in the propidium iodide exclusion cell survival assay with IC50 values of from about 100 μM to about 1 μM (See Examples).
• 1) Using 96 well plates, compounds were serially diluted in DMSO from 9 mM to 4 uM • 2) Assay plates were prepared by diluting samples 310 fold into 150 ul of medium containing 30,000 cells/well resulting in a final DMSO concentration of 0.3% and a concentration range from 29 uM to 0.013 uM for each compound. • 3) Plates were incubated at 37 C and 5% CO2 for 72 h • 4) After 72 h, Alamar blue reagent was added to each well and plates read according to manufacturer's instructions
In vitro cytotoxicity data for RL cells is presented below for various compounds of the invention.
A general note: Resazurin is reduced to fluorescent resorufin, in cell work by metabolically active cells.

The target in a further assay is Bcl-2 (Homo sapiens, UniProt P10415). Kind of assay: Bcl-2 binding affinity analysis (fluorescence polarization binding assay). The procedure, abridged:
(§1)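 Quantitative binding by polarized-fluorescence detection; in vitro, no cells involved.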
Background: In fluorescence polarisation assays a small probe gives low polarisation when free and higher when bound to something large.

The target of another assay is Bcl-xL (Homo sapiens, UniProt Q07817). Kind of assay: Bcl-xL binding affinity analysis (fluorescence polarization binding assay). Details: scale not given here. Put shortly:
as §1

Assay [2] relates to Human Pancreatic Cancer Cell Line Panc1. Kind of assay: Cell death assay (propidium iodide/Hoechst) in Panc1 cells with or without camptothecin. The conditions noted are these: 72 hours, % cell death by propidium iodide/Hoechst. The assay is classed as cell-based. Put shortly: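 Panc1 cells, 10,000/well, exposed 72 h at 37 C to compound (29 uM to 0.13 uM, 0.3% DMSO) with or without 3 uM camptothecin. Propidium iodide and Hoechst staining imaged by fluorescence microscopy; % cell death = PI-stained/Hoechst-stained cells × 100.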

Where [3] appears, read: Homo sapiens, PANC-1, without camptothecin, read-out: Panc1 − Cpt IC50.
The mark [4] stands for this setting: with 3 uM Camptothecin, read-out: Panc1 + Cpt IC50.

Sequence of Bcl-2 (P10415 whole entry): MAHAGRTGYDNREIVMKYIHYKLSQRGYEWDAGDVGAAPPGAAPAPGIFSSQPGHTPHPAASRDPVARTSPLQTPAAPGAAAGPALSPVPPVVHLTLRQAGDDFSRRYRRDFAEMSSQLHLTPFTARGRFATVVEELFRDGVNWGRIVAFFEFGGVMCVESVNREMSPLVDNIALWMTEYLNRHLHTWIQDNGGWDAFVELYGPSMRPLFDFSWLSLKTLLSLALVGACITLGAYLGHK
Sequence of Bcl-xL (Q07817 whole entry): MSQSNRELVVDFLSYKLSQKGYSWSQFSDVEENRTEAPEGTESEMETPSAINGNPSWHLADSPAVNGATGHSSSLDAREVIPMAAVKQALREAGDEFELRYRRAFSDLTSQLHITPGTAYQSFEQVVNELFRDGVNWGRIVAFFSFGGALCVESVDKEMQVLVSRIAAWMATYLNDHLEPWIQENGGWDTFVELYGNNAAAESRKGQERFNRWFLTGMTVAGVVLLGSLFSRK

The term IC50 denotes the concentration that inhibits the measured activity by half. What is called Ki is a measure of affinity in units of concentration, obtained from inhibition or displacement. For the molecule `CCN1CCC[C@H]1CN(Cc1ccccc1)Cc1cccc(CN2O[C@@H](CO)C([C@H](C)O)[C@H]2C(=O)N[C@H]2C[C@H]3C[C@@H]([C@@H]2C)C3(C)C)c1` (stereo partly drawn) [Compound 424], the IC50 is < 2000 nM in assay [1], > 2500 nM in assay [2] (setting [3]) and 1800 to 2500 nM in assay [2] (setting [4]). The Ki on Bcl-2 was < 800 nM. At Bcl-xL, the “Bcl-XL binding affinity Ki” value is on record as “♯”.

For the molecule `CC(O)C1C(CO)ON(Cc2cccc(CN(CCN(C)C)CC3CC3)c2)C1C(=O)NC1CC2CC(C1C)C2(C)C` (stereo not drawn) [Compound 390], the IC50 in assay [1] was > 5000 nM; in assay [2] (setting [3]), > 2500 nM; in assay [2] (setting [4]) it was > 2500 nM. At Bcl-2, the Ki was < 800 nM. Further, the “Bcl-XL binding affinity Ki” value at Bcl-xL was “♯”.

For `CC(O)C1C(CO)ON(Cc2cccc(CN(CCN(C)C)CC3CCCC3)c2)C1C(=O)NC1CC2CC(C1C)C2(C)C` (stereo not drawn) [Compound 363], the IC50 is > 5000 nM in assay [1], > 2500 nM in assay [2] (setting [3]) and > 2500 nM in assay [2] (setting [4]). Moreover, on Bcl-2, the Ki was < 800 nM. Also, on Bcl-xL, the “Bcl-XL binding affinity Ki” value is recorded as “♯”.

Consider `CC(O)C1C(CO)ON(Cc2cccc(CNC(CC3CCCCC3)CN(C)C)c2)C1C(=O)NC1CC2CC(C1C)C2(C)C` (stereo not drawn) [Compound 444], for which the half-maximal inhibitory concentration (IC50) in assay [1] was 2000 to 5000 nM; in assay [2] (setting [3]), > 2500 nM; in assay [2] (setting [4]) it was > 2500 nM. Also, the Ki at Bcl-2 is < 800 nM. In addition, the “Bcl-XL binding affinity Ki” value at Bcl-xL is recorded as “♯”.

On to `Cc1cccc(CN(CCN(C)C)Cc2cccc(CN3OC(CO)C(C(C)O)C3C(=O)NC3CC4CC(C3C)C4(C)C)c2)c1` (stereo not drawn) [Compound 399], for which the values for the IC50 in assay [1], in assay [2] (setting [3]) and in assay [2] (setting [4]) were 2000 to 5000 nM, > 2500 nM and > 2500 nM, respectively. For the same molecule, at Bcl-2, the Ki is < 800 nM. For the same molecule, at Bcl-xL, the “Bcl-XL binding affinity Ki” value was “♯”.

As for `COc1c(CN2O[C@@H](CO)[C@@H]([C@H](C)O)[C@H]2C(=O)N[C@H]2C[C@H]3C[C@@H]([C@@H]2C)C3(C)C)cccc1-c1cccc(C(=O)N[C@H](CN(C)C)C(C)C)c1` [Compound 488], the IC50 in assay [1] was 2000 to 5000 nM; in assay [2] (setting [3]), > 2500 nM; in assay [2] (setting [4]), > 2500 nM. The Ki at Bcl-2 is < 800 nM. In addition, the “Bcl-XL binding affinity Ki” value on Bcl-xL is “♯”.

Take `CC(O)C1C(CO)ON(Cc2cccc(CN(CCN(C)C)Cc3ccccn3)c2)C1C(=O)NC1CC2CC(C1C)C2(C)C` (stereo not drawn) [Compound 413]: the figures for the IC50 in assay [1], in assay [2] (setting [3]) and in assay [2] (setting [4]) were > 5000 nM, > 2500 nM and > 2500 nM, respectively. At Bcl-2, the Ki is < 800 nM. Moreover, the “Bcl-XL binding affinity Ki” value on Bcl-xL is reported as “♯”.

Turning to `CC(C)CC(CN(C)C)NC(=O)c1cccc(CN2OC(CO)C(C(C)O)C2C(=O)NC2CC3CC(C2C)C3(C)C)c1` (stereo not drawn) [Compound 505], the IC50 in assay [1] was > 5000 nM; in assay [2] (setting [3]), > 2500 nM; in assay [2] (setting [4]), > 2500 nM. For the same molecule, on Bcl-2, the Ki is < 800 nM. The “Bcl-XL binding affinity Ki” value on Bcl-xL is “♯”.

In the case of `CC(C)CC(CN(C)C)N(Cc1cccc(CN2OC(CO)C(C(C)O)C2C(=O)NC2CC3CC(C2C)C3(C)C)c1)Cc1ccccc1Br` (stereo not drawn) [Compound 309], the IC50 in assay [1] was < 2000 nM; in assay [2] (setting [3]), > 2500 nM; in assay [2] (setting [4]), 1300 to 1800 nM. Further, on Bcl-2, the Ki is < 800 nM. For the same molecule, the “Bcl-XL binding affinity Ki” value at Bcl-xL was “♯”.

With `CC(O)C1C(CO)ON(Cc2cccc(CN(CCN(C)C)Cc3c(F)cccc3C(F)(F)F)c2)C1C(=O)NC1CC2CC(C1C)C2(C)C` (stereo not drawn) [Compound 412], the IC50 was < 2000 nM in assay [1], > 2500 nM in assay [2] (setting [3]) and 1300 to 1800 nM in assay [2] (setting [4]). Also, on Bcl-2, the Ki is < 800 nM. Besides, at Bcl-xL, the “Bcl-XL binding affinity Ki” value is given as “♯”.

Consider `Cc1cccc(C)c1CN(Cc1cccc(CN2OC(CO)C(C(C)O)C2C(=O)NC2CC3CC(C2C)C3(C)C)c1)C(CC(C)C)CN(C)C` (stereo not drawn) [Compound 325], for which the values for the IC50 in assay [1], in assay [2] (setting [3]) and in assay [2] (setting [4]) were < 2000 nM, < 1300 nM and < 1300 nM, respectively. Moreover, on Bcl-2, the Ki was < 800 nM. The “Bcl-XL binding affinity Ki” value at Bcl-xL is recorded as “♯”.

`CC(O)C1C(CO)ON(Cc2cccc(CN(CC(=O)N(C)C)Cc3ccccc3)c2)C1C(=O)NC1CC2CC(C1C)C2(C)C` (stereo not drawn) [Compound 471]: the concentration for half-maximal inhibition (IC50) is > 5000 nM in assay [1], > 2500 nM in assay [2] (setting [3]) and > 2500 nM in assay [2] (setting [4]). In addition, the Ki at Bcl-2 is < 800 nM. At Bcl-xL, the “Bcl-XL binding affinity Ki” value is on record as “♯”.

For the molecule `CC(O)C1C(CO)ON(Cc2cccc(CN(CCN(C)C)Cc3ccc([N+](=O)[O-])cc3)c2)C1C(=O)NC1CC2CC(C1C)C2(C)C` (stereo not drawn) [Compound 396], the IC50 in assay [1] is > 5000 nM; in assay [2] (setting [3]), > 2500 nM; in assay [2] (setting [4]) it was > 2500 nM. The Ki on Bcl-2 is < 800 nM. The “Bcl-XL binding affinity Ki” value at Bcl-xL is listed as “♯”.

On to `CC(O)C1C(CO)ON(Cc2cccc(CN(Cc3ccccc3)C(CN(C)C)c3ccccc3)c2)C1C(=O)NC1CC2CC(C1C)C2(C)C` (stereo not drawn) [Compound 418], for which the IC50 in assay [1] lay within 2000 to 5000 nM; in assay [2] (setting [3]), 1800 to 2500 nM; in assay [2] (setting [4]) it was 1800 to 2500 nM. For the same molecule, the Ki on Bcl-2 was < 800 nM. In addition, the “Bcl-XL binding affinity Ki” value at Bcl-xL was “♯”.

As for `CC(O)C1C(CO)ON(Cc2cccc(CN(CCN(C)C)Cc3ccccc3I)c2)C1C(=O)NC1CC2CC(C1C)C2(C)C` (stereo not drawn) [Compound 394], the values for the IC50 in assay [1], in assay [2] (setting [3]) and in assay [2] (setting [4]) were < 2000 nM, > 2500 nM and > 2500 nM, respectively. Further, the Ki at Bcl-2 was < 800 nM. For the same molecule, the “Bcl-XL binding affinity Ki” value at Bcl-xL is “♯”.

On to `CC(O)C1C(CO)ON(Cc2cccc(CN(CCN3CCCC3)CC3CCCCC3)c2)C1C(=O)NC1CC2CC(C1C)C2(C)C` (stereo not drawn) [Compound 425], for which the IC50 was < 2000 nM in assay [1], > 2500 nM in assay [2] (setting [3]) and > 2500 nM in assay [2] (setting [4]). In addition, the inhibition constant (Ki) on Bcl-2 was < 800 nM. Also, the “Bcl-XL binding affinity Ki” value on Bcl-xL is “♯”.

As for `CC(O)C1C(CO)ON(Cc2cccc(C(=O)NC(CCc3ccccc3)CN(C)C)c2)C1C(=O)NC1CC2CC(C1C)C2(C)C` (stereo not drawn) [Compound 498], the IC50 in assay [1] was > 5000 nM; in assay [2] (setting [3]), > 2500 nM; in assay [2] (setting [4]), > 2500 nM. The Ki at Bcl-2 is < 800 nM. For the same molecule, the “Bcl-XL binding affinity Ki” value at Bcl-xL is “♯”.

Take `CC(O)C1C(CO)ON(Cc2cccc(CNC(CC3CCCCCC3)CN(C)C)c2)C1C(=O)NC1CC2CC(C1C)C2(C)C` (stereo not drawn) [Compound 472]: the IC50 in assay [1] was 2000 to 5000 nM; in assay [2] (setting [3]), > 2500 nM; in assay [2] (setting [4]) it was > 2500 nM. Further, the Ki at Bcl-2 was < 800 nM. Moreover, the “Bcl-XL binding affinity Ki” value on Bcl-xL is “♯”.

For the molecule `CC(C)CC(CN(C)C)N(Cc1cccc(CN2OC(CO)C(C(C)O)C2C(=O)NC2CC3CC(C2C)C3(C)C)c1)Cc1ccccc1C(F)(F)F` (stereo not drawn) [Compound 321], the IC50 in assay [1] is < 2000 nM; in assay [2] (setting [3]) it was < 1300 nM; in assay [2] (setting [4]) it was < 1300 nM. Moreover, on Bcl-2, the inhibition constant Ki is < 800 nM. Besides, the “Bcl-XL binding affinity Ki” value on Bcl-xL is listed as “♯”.

Regarding `CC(O)C1C(CO)ON(Cc2cccc(CN(CCN(C)C)Cc3ccccc3Br)c2)C1C(=O)NC1CC2CC(C1C)C2(C)C` (stereo not drawn) [Compound 348], the figures for the IC50 in assay [1], in assay [2] (setting [3]) and in assay [2] (setting [4]) were > 5000 nM, > 2500 nM and > 2500 nM, respectively. Further, the Ki at Bcl-2 was < 800 nM. The “Bcl-XL binding affinity Ki” value at Bcl-xL is listed as “♯”.

With `CC(C)CC(CN(C)C)N(Cc1ccccc1)Cc1cccc(CN2OC(CO)C(C(C)O)C2C(=O)NC2CC3CC(C2C)C3(C)C)c1` (stereo not drawn) [Compound 435], the IC50 in assay [1] is 2000 to 5000 nM; in assay [2] (setting [4]), > 2500 nM; in assay [2] (without camptothecin, read-out: Panc1 − Cpt IC50), > 2500 nM. Also, on Bcl-2, the Ki is < 800 nM. The “Bcl-XL binding affinity Ki” value on Bcl-xL was “♯”.
